Measured values reported in PMC9227781, “Inhibitors of O-Acetylserine Sulfhydrylase with a Cyclopropane-Carboxylic Acid Scaffold Are Effective Colistin Adjuvants in Gram Negative Bacteria” (Pharmaceuticals, 2022).
In brackets after ≈: the same amount, converted by molar mass.

Legend:
StOASS-A [1] = molecular target: T1, StOASS-A (Salmonella typhimurium, UniProt P0A1E3); test: Fluorescence binding assay on purified recombinant StOASS-A; parameters: species or system S. Typhimurium; conditions: 20 °C, 100 mM HEPES, 5% DMSO, pH 7.0; racemic mixture; esters tested up to 100 μM
T1 construct: His-tag (with TEV site) (cleaved yes); made in house; host or cells: E. coli Rosetta (DE3)
T1 sequence (P0A1E3 whole entry): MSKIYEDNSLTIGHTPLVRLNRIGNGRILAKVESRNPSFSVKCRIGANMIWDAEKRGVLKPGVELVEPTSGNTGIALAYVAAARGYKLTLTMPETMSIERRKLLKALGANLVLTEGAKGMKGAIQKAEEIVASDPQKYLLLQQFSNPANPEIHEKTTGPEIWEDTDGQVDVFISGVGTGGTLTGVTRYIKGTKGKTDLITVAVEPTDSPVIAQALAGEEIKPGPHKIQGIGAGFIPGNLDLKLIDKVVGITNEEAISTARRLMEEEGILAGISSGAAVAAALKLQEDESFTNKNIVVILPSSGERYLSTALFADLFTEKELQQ
Protocol: (§1) The affinity of the compounds for StOASS-A and StOASS-B was determined on the purified recombinant proteins by an in vitro fluorescence binding assay. Measurements were carried out at 20 °C in a 3 mm pathlength quartz microcuvette in 100 mM HEPES, 5% DMSO (Applichem, Darmstadt, Germany), pH 7.0, using a Fluoromax-4 (Horiba Jobin-Yvon, Kyoto, Japan) spectrofluorometer. Emission spectra of solutions containing 0.2–1.0 μM StOASS, upon excitation of the pyridoxal 5′-phosphate cofactor at 412 nm, in the presence of increasing concentrations of compounds were collected; fluorescence intensities at 500 nm were plotted to compound concentration and data were fitted to a binding isotherm: I=I0+ΔI·compound/KD+compound where I is the fluorescence emission intensity at 500 nm in the presence of a given concentration of compound, I0 is the initial fluorescence emission in the absence of ligands, ΔI is the amplitude of the fluorescence emission change and KD is the dissociation constant. When the KD was lower than the protein concentration, data were fitted to the quadratic equation: I=I0+ΔI·OASS+compound+KD−OASS+compound+KD^2−4·OASS·compound/2
(§2) Data were collected in duplicate.
(§3) Esters were tested up to a concentration of 100 μM and no binding was observed.

StOASS-B [2] = molecular target: T2, StOASS-B (Salmonella typhimurium, UniProt P29848); test: Fluorescence binding assay on purified recombinant StOASS-B; conditions: 20 °C, 100 mM HEPES, 5% DMSO, pH 7.0; racemic mixture; esters tested up to 100 μM
T2 construct: His-tag (with TEV site) (cleaved yes); made in house; host or cells: E. coli Rosetta (DE3)
T2 sequence (P29848 1-303): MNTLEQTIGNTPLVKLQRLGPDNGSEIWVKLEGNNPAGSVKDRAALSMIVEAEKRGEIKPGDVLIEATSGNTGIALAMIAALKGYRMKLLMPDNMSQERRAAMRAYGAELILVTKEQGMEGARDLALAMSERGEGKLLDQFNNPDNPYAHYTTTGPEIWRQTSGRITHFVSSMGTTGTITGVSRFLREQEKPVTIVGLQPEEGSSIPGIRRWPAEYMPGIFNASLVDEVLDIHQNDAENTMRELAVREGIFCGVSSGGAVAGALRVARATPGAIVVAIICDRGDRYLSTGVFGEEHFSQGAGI
Protocol: as §1, §2, §3

E. coli ATCC 25922 = test: MIC by broth microdilution, E. coli; format: cell-based, Escherichia coli; conditions: MHB; for MIC: Escherichia coli, ATCC25922, read-out: MIC (μg/mL) E.coli ATCC 25922
Protocol: (§4) MIC values were evaluated following CLSI guidelines with some modifications, as referred to in previous work. Twofold dilutions 25.6–0.05 mg/mL of the tested compounds were performed in DMSO in separate 96-well microtiter U-plates (Greiner, Milan, Italy). In a different 96-well microtiter U-plate, for each well of the replicates, 49 µL of broth medium were added. Then, in each well of the plate, one microliter of each compound at variable dilution in DMSO was added. For each test, three independent experiments with three replicates each were performed. Tested reference bacterial strains (E. coli ATCC25922; S. Typhimurium ATCC14028; K. pneumoniae ATCC13883) were brought to the logarithmic phase of growth in MHB medium by incubation at 37 °C for 24 h. After incubation, bacterial suspensions were centrifuged (2000 rpm, 4 °C for 20 min), and then the pellets were resuspended in 100 mM phosphate buffer, pH 7.0, to reach a final bacterial concentration of 10^8 CFU/mL, adjusted by spectrophotometry (OD620nm ranged between 0.08–0.13). The obtained suspensions were further diluted 1:100 in broth medium to reach a bacterial concentration of 10^6 CFU/mL. Fifty µL of the bacterial suspension containing 10^6 CFU/mL were inoculated into each well within 30 min, to obtain a final concentration of 5 × 10^5 CFU/mL in a total volume of 100 µL. The final dilution range tested was 256–0.5 µg/mL. Growth and sterility controls were performed for each strain and for each tested compound. Plates were then incubated for 24 h at 37 °C in a static aerobic atmosphere. After incubation, plates were read by unaided eye with a microtiter reading mirror and then the OD of each well of the plates was measured spectrophotometrically at 620 nm. MIC values were calculated as the arithmetic mean ± standard deviation (SD) of the unaided eye reading and the inhibition of growth for each tested dilution was calculated from the OD values (mean ± SD). A quality control microorganism (E. coli ATCC 25922) was tested periodically to validate the accuracy of the procedure.

S. Typhimurium ATCC14028 = test: MIC by broth microdilution, S. Typhimurium; format: cell-based, Salmonella enterica serovar Typhimurium; conditions: MHB; for MIC: Salmonella enterica, read-out: MIC (μg/mL) S. Typhimurium ATCC14028
Protocol: as §4

K. pneumoniae ATCC13883 = test: MIC by broth microdilution, K. pneumoniae; format: cell-based, Klebsiella pneumoniae; conditions: MHB; for MIC: Klebsiella pneumoniae, ATCC13883, read-out: MIC (μg/mL) K. pneumoniae ATCC13883
Protocol: as §4

MDBK cells = test: Cytotoxicity assay (MTT) on MDBK cells; format: cell-based, bovine; conditions: 32, 16, 8 µg/mL; MTT test
Protocol: The cytotoxicity assay was performed using the 3-(4,5-dimethylthiazol-2-yl)-2,5-diphenyltetrazolium bromide (MTT) test, following the procedure used by Donofrio et al.. MDBK cells were cultured on microtiter tissue culture plates in DMEM medium for 24 h at 37 °C in the presence of 5% CO2. After incubation, when the cell monolayer was at confluence, an aliquot of 1 µL of UPAR415 in DMSO at different concentrations was added in each well, containing a volume of 100 µL of DMEM medium and MDBK cells, and then the plates were reincubated at the same conditions. After incubation, 10 µL of MTT at 200 mg/mL (3-(4,5-dimethylthiazol-2-yl)-2,5-diphenyltetrazolium bromide) was added to each well and incubated at 37 °C for 6 h. At the end of the incubation, 100 µL of the solubilization solution (10% SDS in 0.01 M HCl) was added to each well and then incubated overnight. The MTT compound, a yellow tetrazolium salt, is reduced by mitochondrial enzymes (succinate dehydrogenase) of metabolically active eukaryotic cells to insoluble formazan crystals. In the presence of metabolically active cells, after the addition of a detergent solution (10% SDS in […]) that allows the formazan to be released from the cells, a violet color is seen in the medium. Instead, in the presence of non-viable cells, MTT is not reduced to formazan and therefore the solution will remain yellow.
After incubation, plates were read with a spectrophotometer at 620 nm. Positive controls (PC)—without any compounds—and PCs with 1% DMSO were performed for each plate and three replicates for two independent experiments were performed for each assay.

S. Typhimurium DW378 = test: Target engagement: MIC of 12h and colistin in cysK/cysM-inactive mutant strain; format: cell-based, Salmonella enterica serovar Typhimurium; conditions: colistin alone
Protocol: In this regard, compound 12h has been selected because of its favorable overall properties. It has been tested at a concentration of 32 μg/mL, in order to ensure complete inactivation of both the OASS isoforms. […] The MIC assays of 12h and colistin alone on the DW378 strain have been performed and they have been compared with those obtained on the WT strain. […] But, on the other hand, the MIC value of colistin was […] lower on the mutant strain than that on the WT, a result that overlapped those achieved with the association of colistin and 12h in WT cells.
MIC values were evaluated following CLSI guidelines with some modifications, as referred to in previous work. Twofold dilutions 25.6–0.05 mg/mL of the tested compounds were performed in DMSO in separate 96-well microtiter U-plates (Greiner, Milan, Italy). In a different 96-well microtiter U-plate, for each well of the replicates, 49 µL of broth medium were added. Then, in each well of the plate, one microliter of each compound at variable dilution in DMSO was added. For each test, three independent experiments with three replicates each were performed.
Antimicrobial activity of associations between the different compounds and colistin (Sigma-Aldrich, St. Louis, MO, USA, lot n. 049M-4836 V) was tested with checkerboard assay with minor modifications, as mentioned in the previous work. For each assay, three experiments with three replicates each were assessed. For each compound tested concentration, 96-wells microtiter U-plates were prepared with twofold serial dilutions of colistin in MHB starting from the MIC value (µg/mL) for ten consecutive dilutions in 50 µL of broth. In each well of the same replicate, 1 µL of each compound in DMSO was added at a fixed concentration, 100 times higher than the final desired concentration (3.2; 1.6; 0.8 mg/mL). Subsequently, 49 µL of the bacterial suspension at a concentration of 10^6 CFU/mL, adjusted spectrophotometrically as reported above, was added to each well, reaching the final bacterial concentration of 5 × 10^5 CFU/mL. Growth and sterility controls were performed for each experiment and for each replicate. Finally, the plates were incubated at 37 °C in aerobic atmosphere for 24 h. After incubation, plates were read by unaided eye with a microtiter reading mirror and then the OD of each well of the plates was measured spectrophotometrically at 620 nm. MIC values were calculated as the arithmetic mean ± SD of the unaided eye reading and the inhibition of growth for each tested dilution was calculated from the OD values (mean ± SD).
* This strain is defective for the expression of cysK and cysM genes, encoding for isozymes OASS-A and B. The genotypes of this strain are trpC109, cysK1772, and cysM1770. […]

StOASS-A [3] = molecular target: T1, StOASS-A; parameters: method as in PMID 26894308; conditions: read-out: KD toward isoform A from S. Typhimurium; cited from earlier work
StOASS-B [4] = molecular target: T2, StOASS-B; parameters: method as in PMID 26894308; conditions: read-out: KD toward isoform B from S. Typhimurium; cited from earlier work
[5] = tested on: all bacterial species considered in that study; parameters: method as in PMID 33513010; conditions: cited from earlier work

| Molecule | KD (μM) OASS-A (StOASS-A [1]) | KD (μM) OASS-B (StOASS-B [2]) | MIC (E. coli ATCC 25922; compound alone, 24 h at 37 °C) [µg/mL] | MIC (S. Typhimurium ATCC14028; compound alone, 24 h at 37 °C) [µg/mL] | MIC (K. pneumoniae ATCC13883; compound alone, 24 h at 37 °C) [µg/mL] | Toxicity on viability of MDBK cells (MDBK cells) | other results |
| --- | --- | --- | --- | --- | --- | --- | --- |
| CCOC(=O)[C@]1(Cc2ccc(C)cc2)C[C@H]1c1cccc(N2CCOCC2)c1 (relative stereo) [Compound 12g, trans-ethyl 1-(4-methylbenzyl)-2-(3-morpholinophenyl)cyclopropanecarboxylate] | No binding | No binding | > 512 | > 512 | > 512 | proliferative effects | – |
| CCOC(=O)[C@]1(Cc2ccc(C)cc2)C[C@H]1c1cccc(N2CCN(C)CC2)c1 (relative stereo) [Compound 20j, trans-ethyl 1-(4-methylbenzyl)-2-(3-(4-methylpiperazin-1-yl)phenyl)cyclopropanecarboxylate] | No binding | No binding | > 512 | > 512 | > 512 | high toxicity profiles | – |
| CCOC(=O)[C@]1(Cc2ccc(C)cc2)C[C@H]1c1cccc(N2CCNCC2)c1 (relative stereo) [Compound 20i, trans-ethyl 1-(4-methylbenzyl)-2-(3-(piperazin-1-yl)phenyl)cyclopropanecarboxylate] | No binding | No binding | 40 (≈ 106 µM) | 36 (≈ 95.1 µM) | 32 (≈ 84.5 µM) | high toxicity profiles | MIC (μg/mL) E.coli ATCC 25922 (E. coli ATCC 25922; compound alone, 24 h at 37 °C): measurable antimicrobial activity; MIC (μg/mL) S. Typhimurium ATCC14028 (S. Typhimurium ATCC14028; compound alone, 24 h at 37 °C): measurable antimicrobial activity; MIC (μg/mL) K. pneumoniae ATCC13883 (K. pneumoniae ATCC13883; compound alone, 24 h at 37 °C): measurable antimicrobial activity |
| CCOC(=O)[C@]1(Cc2ccc(C)cc2)C[C@H]1c1cccc(-c2cccc(F)c2)c1 (relative stereo) [Compound 8f, trans-ethyl 2-(3′-fluoro-[1,1′-biphenyl]-3-yl)-1-(4-methylbenzyl)cyclopropanecarboxylate] | No binding | No binding | > 512 | > 512 | > 512 | proliferative effects | – |
| Colistin [reference compound] | – | – | – | – | – | – | MIC Colistin E. coli (E. coli ATCC 25922; colistin alone): 0.39 ± 0.25 µg/mL; MIC Colistin S. Typhimurium (S. Typhimurium ATCC14028; colistin alone, ATCC14028 (wild type)): 0.53 ± 0.19 µg/mL; MIC Colistin K. pneumoniae (K. pneumoniae ATCC13883; colistin alone): 4.00 ± 1.73 µg/mL; MIC Colistin (S. Typhimurium DW378; DW378 mutant strain): 0.141 ± 0.09 µg/mL; MIC of colistin on mutant strain DW378 relative to WT (fold lower) (S. Typhimurium DW378; DW378 versus wild type): 5 fold |
| CCOC(=O)C1(Cc2ccc(C)cc2)CC1c1cccc(-c2c[nH]nc2C)c1 (centres unmarked) [Compound 8b, ethyl 2-(3-(3-methyl-1H-pyrazol-4-yl)phenyl)-1-(4-methylbenzyl)cyclopropanecarboxylate] | No binding | No binding | > 512 | > 512 | > 512 | high toxicity profiles | – |
| Cc1ccc(C[C@@]2(C(=O)O)C[C@H]2c2ccccc2)cc1 [UPAR415] | – | – | – | – | – | – | Kd (StOASS-A [3]): 28 nM; Kd (StOASS-B [4]): 490 nM; effect as colistin adjuvant [5]: synergistic or additive effect |
